Measurements taken from BigSolDB 2.1.

Conditions: in ethanol

CC(C)C1=CC2=CC[C@@H]3[C@](C)(CCC[C@@]3(C)C(=O)O)[C@H]2CC1
Conditions | solubility (mole fraction)
285.07 K | 0.0165
288.7 K | 0.0183
292 K | 0.0202
294.8 K | 0.0219
297.05 K | 0.0235
299.63 K | 0.0253
301.8 K | 0.0272
304.05 K | 0.0291
306.05 K | 0.0311
308.22 K | 0.0335
310.35 K | 0.036
312.35 K | 0.0385
315.23 K | 0.041
316.85 K | 0.0439
319.03 K | 0.0467
